Literature values, collected in patent publication US11267839B2, “Crystalline forms of LNT” (GLYCOM A/S, priority 2015, dated 2022).

Conditions: prior-art crystalline LNT from aqueous ethanol, after drying

## CC(=O)N[C@H]1[C@H](O[C@H]2[C@@H](O)[C@@H](CO)O[C@@H](O[C@H]3[C@H](O)[C@@H](O)C(O)O[C@@H]3CO)[C@@H]2O)O[C@H](CO)[C@@H](O)[C@@H]1O[C@@H]1O[C@H](CO)[C@H](O)[C@H](O)[C@H]1O (stereo partly shown) [LNT, Galpβ1-3GlcNAcpβ1-3Galpβ1-4Glc]
  weight taken back when stored in air (hygroscopic): around 8 % of its weight
